# Earlier results in article PMC5983471 (PLoS ONE, 2018).
# Where two headings read alike, the source gives them in different places.
# Assays:
# [1] = parameters: method as in FDA prescribing information; conditions: single oral 14C-enzalutamide 160 mg; ref FDA prescribing information; cited from earlier work
# [2] = parameters: method as in FDA prescribing information; conditions: healthy volunteers; ref FDA prescribing information; cited from earlier work
# [3] = test system: plasma proteins, primarily albumin; parameters: method as in FDA prescribing information; conditions: ref FDA prescribing information; cited from earlier work
# [4] = parameters: method as in FDA prescribing information; conditions: ref FDA prescribing information, cited from earlier work
# CYP3A4 [5] = test system: CYP3A4; parameters: method as in FDA prescribing information; conditions: healthy volunteers; ref FDA prescribing information; cited from earlier work
# CRPC [6] = conditions: cited from earlier work
# CYP2C8 = test system: CYP2C8; parameters: method as in FDA prescribing information; conditions: healthy volunteers; ref FDA prescribing information; cited from earlier work
# CYP2C19 = test system: CYP2C19; parameters: method as in FDA prescribing information; conditions: ref FDA prescribing information, cited from earlier work
# CRPC [7] = conditions: cited from earlier work; remark: listed apart in the source
# CYP3A4 [8] = test system: CYP3A4; parameters: method as in FDA prescribing information; conditions: ref FDA prescribing information, cited from earlier work
# [9] = test system: castration-resistant prostate cancer; conditions: ref 59 (S1 Protocol), cited from earlier work
# CYP2C9 = test system: CYP2C9; parameters: method as in FDA prescribing information; conditions: ref FDA prescribing information, cited from earlier work
# human CYP2C8 and CYP3A4 = test system: human CYP2C8 and CYP3A4; parameters: method as in FDA prescribing information; conditions: in vitro; ref FDA prescribing information; cited from earlier work
# [10] = ref FDA prescribing information; cited from earlier work
# [11] = AFFIRM, Enzalutamide (N=800), ref Scher et al, 2012
# [12] = PREVAIL, Enzalutamide (N=871), ref Beer et al, 2014
smiles,measurement,setting,value
CC1(C)C(=O)N(c2ccc(C#N)c(C(F)(F)F)c2)C(=S)N1c1ccc(C(N)=O)c(F)c1 [N-desmethyl enzalutamide],% of dose recovered in feces as this species,[1],1%
same,effect of a high-fat meal on AUC,[2],did not alter
same,bound to plasma proteins,[3],95%
same,plasma mean Cmax at steady state,[4]; 160 mg daily oral,12700 ng/mL
same,plasma mean predose trough at steady state,[4]; 160 mg daily oral,13.0 µg/mL
"CNC(=O)c1ccc(N2C(=S)N(c3ccc(C#N)c(C(F)(F)F)c3)C(=O)C2(C)C)cc1F [enzalutamide, 4-(3-[4-cyano-3-(trifluoromethyl)phenyl]-5,5dimethyl-4-oxo-2-sulfanylideneimidazolidin-1-yl)-2-fluoro-N-methylbenzamide]",increase of composite AUC of enzalutamide plus N-desmethyl enzalutamide by itraconazole,CYP3A4 [5],1.3 fold
same,HR for death vs placebo,"CRPC [6]; 95% CI 0.53 to 0.75, P<0.001, ref 4 (S1 Protocol)",0.63
same,"Abnormal liver function testing, Grade 3-4 (%)",CRPC [6]; [11],0.4%
same,"Arthralgias / musculoskeletal pain, Grade 3-4 (%)",CRPC [6]; [11],1%
same,"Diarrhea, Grade 3-4 (%)",CRPC [6]; [11],1%
same,"Fatigue, Grade 3-4 (%)",CRPC [6]; [11],6%
same,"Headache, Grade 3-4 (%)",CRPC [6]; [11],0.8%
same,"Hot flashes, Grade 3-4 (%)",CRPC [6]; [11],0%
same,"Seizure, Grade 3-4 (%)",CRPC [6]; [11],0.6%
same,median OS,"CRPC [6]; enzalutamide 160 mg daily (N=800), ref 4 (S1 Protocol)",18.4 months
same,rate of grade 3 or higher AEs,"CRPC [6]; enzalutamide 160 mg daily, ref 4 (S1 Protocol)",45.3%
same,effect of gemfibrozil on composite AUC of enzalutamide plus N-desmethyl enzalutamide,CYP2C8,increased
same,effect on plasma exposure to omeprazole (CYP2C19 substrate),CYP2C19; at steady state,reduced
same,CYP2C19 inducer strength,CYP2C19; in humans,moderate
same,HR for death vs placebo,"CRPC [7]; 95% CI 0.60 to 0.84, P<0.0001, ref 1 (S1 Protocol)",0.706
same,"Abnormal liver function testing, Grade 3-4 (%)",CRPC [7]; [12],0.2%
same,"Arthralgias / musculoskeletal pain, Grade 3-4 (%)",CRPC [7]; [12],1.4%
same,"Back pain, Grade 3-4 (%)",CRPC [7]; [12],2.5%
same,"Constipation, Grade 3-4 (%)",CRPC [7]; [12],0.5%
same,"Fatigue, Grade 3-4 (%)",CRPC [7]; [12],1.8%
same,"Hypertension, Grade 3-4 (%)",CRPC [7]; [12],6.8%
same,"Seizure, Grade 3-4 (%)",CRPC [7]; [12],0%
same,median OS,"CRPC [7]; enzalutamide 160 mg daily (N=871), ref 1 (S1 Protocol)",32.4 months
same,effect on plasma exposure to midazolam (CYP3A4 substrate),CYP3A4 [8]; at steady state,reduced
same,CYP3A4 inducer strength,CYP3A4 [8]; in humans,strong
same,effect of a high-fat meal on AUC,[2],did not alter
same,PSA response rate (≥50% PSA declines),"[9]; 30 mg to 600 mg by mouth daily, 78 out of 140 subjects",56%
same,patients who discontinued treatment for an AE,[9]; daily dose ≤240 mg,1/87
same,patients who discontinued treatment for an AE,[9]; doses ≥360 mg,7/53
same,grade 3-4 AE: anemia,[9]; overall,3%
same,grade 3-4 AE: arthralgia,[9]; overall,2%
same,grade 3-4 AE: asthenia,[9]; overall,2%
same,grade 3-4 AE: fatigue,[9]; overall,11%
same,grade 3-4 AE: seizures,[9]; overall,2%
same,mild (grade 2) AE: anorexia,[9]; overall,5.7%
same,mild (grade 2) AE: back pain,[9]; overall,5.7%
same,mild (grade 2) AE: dyspnea,[9]; overall,7.9%
same,mild (grade 2) AE: fatigue,[9]; overall,27.1%
same,mild (grade 2) AE: nausea,[9]; overall,8.6%
same,maximum tolerated dose,[9],240 mg daily
same,effect on plasma exposure to warfarin (CYP2C9 substrate),CYP2C9; at steady state,reduced
same,CYP2C9 inducer strength,CYP2C9; in humans,moderate
same,enzymes responsible for the metabolism,human CYP2C8 and CYP3A4,CYP2C8 and CYP3A4
same,solubility in water,[10],practically insoluble
same,plasma mean Cmax at steady state,[4]; 160 mg daily oral,16600 ng/mL
same,mean apparent volume of distribution (V/F),"[4]; single oral dose, patients, 29% CV",110 L
same,mean apparent clearance (CL/F),"[4]; single oral dose, patients",0.56 L/h
